# According to patent publication US10150737B2, “Compounds for controlling arthropods” (priority 2013, dated 2018):
# Key:
# [1] = logP determination by HPLC on a reversed-phase column (C18); assay type: physicochemical; settings: for logP^a): HPLC-MS method a); for log P: HPLC-MS
# Rhipicephalus sanguineus = Rhipicephalus sanguineus - in vitro contact tests with adult brown dog ticks; assay type: in vivo; settings: after 48 h, ticks dead or moribund
# How it was run: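 Test tubes coated with active ingredient in acetone, 5 μg/cm^2 at 900 ppm. 5-10 adult ticks per tube, kept dark at room temperature for 48 h. Ticks then heated at 45-50° C ≤5 min; motionless or uncoordinated ticks scored dead/moribund, efficacy as % dead or moribund.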
# Ctenocephalides felis [2] = assay: Ctenocephalides felis - in vitro contact tests with adult cat fleas; assay type: in vivo; settings: application rate 5 μg/cm2 (=500 g/ha); after 48 h; fleas dead or moribund
# How it was run: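 Tubes coated with compound in acetone (250 μl of 900 ppm solution gives 5 μg/cm^2 on 44.7 cm^2), solvent evaporated, then 5–10 adult fleas added and kept horizontal at room temperature and ambient humidity. After 48 h, dead or moribund (motionless/uncoordinated) fleas scored as % efficacy.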
# Amblyomma hebraeum = assay: Amblyomma hebaraeum test (tick nymphs, immersion); assay type: in vivo; settings: application rate 100 ppm; tick nymphs immersed one minute; after 42 days
# How it was run: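 Tick nymphs immersed for one minute in compound diluted in water from a DMSO concentrate, then held on filter paper in a Petri dish in a climate-controlled cabinet. Kill (%) scored after 42 days; 100% means all ticks dead, 0% none.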
# Boophilus microplus = Boophilus microplus - injection test; assay type: in vivo; settings: application rate 20 μg/animal; injection into engorged adult female ticks; after 7 days
# How it was run: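 Active ingredient in DMSO, 1 μl injected into the abdomen of 5 engorged adult female ticks, then held in a climate-controlled room. Efficacy scored after 7 days from laying of fertile eggs, with non-fertile-looking eggs kept about 42 days for larval hatch; 100% means no fertile eggs.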
# [3] = test system: Boophilus microplus Parkhurst strain, SP-resistant; assay: Boophilus microplus - dip test; assay type: in vivo; settings: application rate 100 ppm; dip of engorged adult female ticks; after 7 days
# How it was run: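 SP-resistant Parkhurst strain engorged adult female Boophilus microplus (8-10 per tube) dipped in DMSO-based compound dilutions in water, then kept in a climate-controlled room. Efficacy scored after 7 days from fertile egg laying, with larval hatch checked after about 42 days; 100% means no fertile eggs.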
# Ctenocephalides felis [4] = assay: Ctenocephalides felis - oral test; assay type: in vivo; settings: application rate 100 ppm in citrated cattle blood; after 2 days
# How it was run: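 Compound in DMSO diluted into citrated cattle blood, fed through a parafilm membrane to about 20 unfed adult cat fleas. Kill in % scored after 2 days (100% = all dead).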
# Lucilia cuprina = Lucilia cuprina test; assay type: in vivo; settings: application rate 100 ppm; L1 larvae; after 2 days
# How it was run: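 About 20 L1 larvae placed on minced horsemeat treated with compound, formulated in DMSO and diluted with water to test concentration. Kill in % scored after 2 days (100% = all larvae dead, 0% = none).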
# Musca domestica = Musca domestica test; assay type: in vivo; settings: application rate 100 ppm; adult houseflies; after 2 days
# How it was run: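 Compound in DMSO, diluted with water, applied to a sugar-solution sponge; vessels hold 10 adult houseflies. Percent mortality scored after 2 days.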
# Myzus persicae = Myzus persicae - spray test; assay type: in vivo; settings: Chinese cabbage leaf discs, after 6 days
# How it was run: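 Chinese cabbage leaf discs carrying all stages of Myzus persicae sprayed with compound in acetone/DMF diluted in water with 1000 ppm emulsifier. Efficacy (% aphids killed) assessed after 6 days.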
# Phaedon cochleariae = Phaedon cochleariae - spray test; assay type: in vivo; settings: larvae on Chinese cabbage leaf discs, after 7 days
# How it was run: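 Chinese cabbage leaf discs sprayed with compound formulated in acetone/DMF and water containing 1000 ppm emulsifier; once dry, infested with mustard beetle larvae. Efficacy (% larvae killed) scored after 7 days.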
# Spodoptera frugiperda = Spodoptera frugiperda - spray test; assay type: in vivo; settings: caterpillars on maize leaf discs, after 7 days
# How it was run: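 Maize leaf discs sprayed with compound formulated in acetone/DMF and diluted in water containing 1000 ppm alkylaryl polyglycol ether emulsifier, then infested with armyworm caterpillars after drying. Efficacy scored after 7 days as % caterpillars killed (100% all, 0% none).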
# Tetranychus urticae = Tetranychus urticae - spray test, OP-resistant; assay type: in vivo; settings: bean leaf discs, after 6 days
# How it was run: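 Compound dissolved in acetone/DMF, diluted with water containing 1000 ppm alkylaryl polyglycol ether emulsifier to test concentrations. Bean leaf discs infested with all stages of spider mites were sprayed; % kill determined after 6 days (100% = all mites dead, 0% = none).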
# [5] = reversed-phase column (C18), Table I-T3
Compound,logP^a) [1],"log P [1, 5]",efficacy (Rhipicephalus sanguineus; application rate 5 μg/cm2),efficacy (Ctenocephalides felis [2]),efficacy (kill) (Amblyomma hebraeum),efficacy (laying of fertile eggs) (Boophilus microplus),efficacy (laying of fertile eggs) [3],efficacy (kill) (Ctenocephalides felis [4]),efficacy (kill) (Lucilia cuprina),efficacy (kill) (Musca domestica),efficacy (Myzus persicae; application rate 100 g/ha),efficacy (Phaedon cochleariae; application rate 500 g/ha),efficacy (Spodoptera frugiperda; application rate 500 g/ha),efficacy (Tetranychus urticae; application rate 500 g/ha),logP^a) ([1]; reversed-phase column (C18)),efficacy (Phaedon cochleariae; application rate 100 g/ha),efficacy (Spodoptera frugiperda; application rate 100 g/ha),efficacy (Tetranychus urticae; application rate 100 g/ha),"logP^a) [1, 5]",efficacy (Myzus persicae; application rate 500 g/ha),also measured
Cc1cc(C(F)(C(F)(F)F)C(F)(F)F)cc(C)c1-n1cc(-c2cnc(C)c(C(=O)NC3CC3)c2)cn1 [I-T3-96],3.3,3.3,100%,100%,100%,100%,100%,100%,100%,100%,90%,100%,100%,100%,–,–,–,–,–,–,–
N#CC1(NC(=O)c2cc(-c3cnn(-c4c(Cl)cc(C(F)(C(F)(F)F)C(F)(F)F)cc4OC(F)(F)F)c3)ccc2Cl)CC1 [I-T3-163],–,4.5,100%,100%,100%,100%,100%,100%,100%,100%,90%,–,–,–,4.5,100%,100%,100%,–,–,–
CCc1cc(C(F)(C(F)(F)F)C(F)(F)F)cc(Cl)c1-n1cc(-c2ccc(Cl)c(C(=O)NC3CC3)c2)cn1 [I-T3-72],4.6,–,100%,100%,100%,100%,100%,100%,100%,100%,90%,–,–,–,–,100%,100%,100%,4.6,–,–
N#CC1(NC(=O)c2cc(-c3cnn(-c4c(Cl)cc(C(F)(C(F)(F)F)C(F)(F)F)cc4C(F)(F)F)c3)cnc2Cl)CC1 [I-T3-114],–,4.0,–,100%,100%,100%,100%,100%,100%,100%,–,100%,100%,100%,4.0,–,–,–,–,90%,efficacy (Rhipicephalus sanguineus; application rate 1 μg/cm2): 100%
Cc1cc(C(F)(C(F)(F)F)C(F)(F)F)cc(C(F)(F)F)c1-n1cc(-c2cnc(C)c(C(=O)N(C)C3(C#N)CC3)c2)cn1 [I-T3-123],–,3.9,–,100%,80%,100%,100%,100%,100%,100%,100%,–,–,–,3.9,100%,100%,90%,–,–,efficacy (Rhipicephalus sanguineus; application rate 1 μg/cm2): 80%
Cc1cc(C(F)(C(F)(F)F)C(F)(F)F)cc(C)c1-n1cc(-c2cnc(Cl)c(C(=O)NC3(C#N)CC3)c2)cn1 [I-T3-21],3.7,–,100%,100%,100%,100%,100%,100%,100%,100%,–,100%,100%,100%,–,–,–,–,3.7,90%,–
Cc1cc(C(F)(C(F)(F)F)C(F)(F)F)cc(Cl)c1-n1cc(-c2ccc(Cl)c(C(=O)NC3(C#N)CC3)c2)cn1 [I-T3-64],4.2,–,–,100%,100%,100%,100%,100%,100%,100%,90%,–,–,–,–,100%,100%,100%,4.2,–,efficacy (Rhipicephalus sanguineus; application rate 0.2 μg/cm2): 80%
Cc1cc(C(F)(C(F)(F)F)C(F)(F)F)cc(C)c1-n1cc(-c2cnc(C)c(C(=O)NC3(C#N)CC3)c2)cn1 [I-T3-97],3.4,3.4,100%,100%,100%,100%,100%,100%,100%,100%,–,100%,100%,100%,–,–,–,–,–,90%,–
O=C(NC1CC1)c1cc(-c2cnn(-c3c(Cl)cc(C(F)(C(F)(F)F)C(F)(F)F)cc3C(F)(F)F)c2)cnc1Cl [I-T3-112],–,4.0,100%,100%,100%,100%,100%,100%,100%,100%,100%,100%,100%,100%,4.0,–,–,–,–,–,–
Cc1cc(C(F)(C(F)(F)F)C(F)(F)F)cc(C(F)(F)F)c1-n1cc(-c2cnc(Cl)c(C(=O)NC3(C#N)CC3)c2)cn1 [I-T3-108],–,4.0,–,100%,100%,100%,100%,100%,100%,100%,–,100%,100%,100%,4.0,–,–,–,–,100%,efficacy (Rhipicephalus sanguineus; application rate 1 μg/cm2): 100%
Cc1cc(C(F)(C(F)(F)F)C(F)(F)F)cc(C(F)(F)F)c1-n1cc(-c2ccc(Cl)c(C(=O)NC3(C#N)CC3)c2)cn1 [I-T3-55],4.3,–,100%,100%,100%,100%,100%,100%,100%,100%,100%,–,–,–,–,100%,100%,100%,4.3,–,–
Cc1ncc(-c2cnn(-c3c(Cl)cc(C(F)(C(F)(F)F)C(F)(F)F)cc3Cl)c2)cc1C(=O)NC1CC1 [I-T3-91],3.3,3.3,100%,100%,100%,100%,100%,100%,100%,100%,–,100%,100%,100%,–,–,–,–,–,90%,–
